Laboratory results reported in patent US7635561B2, “Methods of diagnosing, prognosing and treating breast cancer” (Temple University of the Commonwealth System of Higher …, priority 2003, dated 2009).

What was measured:
Assay type in all cases: cell-based
[1] = system: pRb2/p130-multimolecular complex on ER-α promoter in MDA-MB-231 cells; assay: XChIP analysis of recruitment of pRb2/p130-multimolecular complex to the ER-α promoter in 5-Aza-2dC treated MDA-MB-231 cells; conditions: 72 hours treatment, complex contained pRb2/p130, E2F4, SUV39H1, p300, HDAC1
Procedure: Soluble chromatin was immunoprecipitated with specific antibodies recognizing pRb2/p130, E2F4, HDAC1, SUV39H1, DNMT1, and p300. The presence of ER-α promoter sequences in the immunoprecipitates was tested by PCR using specific primers spanning ER-α promoter.
Chromatin immunoprecipitations were performed using a modified procedure of previously published methods (see Orlando et al., 1997, Methods and 11, 205; Keller et al., 2002, J. Biol. Chem., 277, 31430, the entire disclosures of which are herein incorporated by reference), in combination with Western blot and PCR techniques. Approximately 1×10^6 MCF-7 and MDA-MB-231 cells were cross-linked by adding formaldehyde (1% final concentration) directly to the culture medium, and incubating the cells for 8 minutes at 37° C.
After removal of the medium, cells were washed three times on plates with cold phosphate-buffered saline (PBS) containing protease inhibitors (1 mM phenylmethyl-sulfonyl fluoride, 1 μg/ml aprotinin and 1 μg/ml pepstatin A), scraped, and washed again twice in cold PBS. […]
The recruitment of pRb2/p130-multimolecular complexes to ER-α promoter was analyzed in MCF-7 and MDA-MB-231 cells by XChIP. […]

ER-α in MDA-MB-231 cells = assay: Effect of 5-Aza-2dC on ER-α RNA (RT-PCR) and protein (Western blot) expression in MDA-MB-231 cells
Procedure: The expression of β-actin protein in each sample was assessed to normalize protein loading.
The breast carcinoma cell lines, MCF-7 (estrogen receptor-positive), MDA-MB-231 (estrogen receptor-negative) and the normal mammary epithelial cell line MCF-12A, were obtained from ATCC (Rockville, Md.) and were cultured according to the manufacturer's protocols. The breast primary tumors were selected on the basis of estrogen receptor status.
Control cells were left untreated. Total RNA was isolated from the treated and control cells, and ER-α RNA was detected by reverse-transcription polymerase chain reaction (RT-PCR). P-actin RNA expression was also determined by RT-PCR in total RNA isolated from treatment and control cells to normalize RNA loading. […] The expression of β-actin protein was assessed to normalize protein loading.

[2] = system: pRb2/p130-multimolecular complex on ER-α promoter in MCF-7 cells; assay: XChIP analysis of recruitment of pRb2/p130-multimolecular complex to the ER-α promoter in 5-Aza-2dC treated MCF-7 cells; conditions: 72 hours treatment
Procedure: After removal of the medium, cells were washed three times on plates with cold phosphate-buffered saline (PBS) containing protease inhibitors (1 mM phenylmethyl-sulfonyl fluoride, 1 μg/ml aprotinin and 1 μg/ml pepstatin A), scraped, and washed again twice in cold PBS. The cell pellet was resuspended in SDS lysis buffer (1% SDS, 10 mM EDTA, 50 mM Tris-HCl, pH 8.1), incubated for 10 minutes on ice, sonicated to shear DNA to lengths between 300 and 500 bp, and centrifuged for 10 minutes at 13,000 rpm at 4° C. Sonicated cell supernatant was diluted in ChIP dilution buffer (0.01% SDS, 1.1% Triton X-100, 1.2 mM EDTA, 16.7 mM Tris-HCL, pH 8.1, 167 mM NaCL), and pre-cleared twice with salmon sperm DNA/protein A agarose at 4° C. for 2 hours. The agarose was pelleted and the supernatant fraction was collected and incubated overnight at 4° C. with the immunoprecipitating antibody.
As negative controls, a “no-antibody” immunoprecipitation was performed by incubating the supernatant fraction with salmon sperm DNA/protein A agarose, and immunoprecipitating the mixture with an irrelevant antibody. […]

Nc1ncn([C@H]2C[C@H](O)[C@@H](CO)O2)c(=O)n1 [5-Aza-2dC, 5-Aza-2′-deoxycytidine]
composition of pRb2/p130-multimolecular complex recruited to ER-α promoter [1]: did not contain DNMT1
time of maximal ER-α RNA expression (ER-α in MDA-MB-231 cells; MDA-MB-231 cells treated with 5-Aza-2dC): 72 h
expression of ER-α RNA (ER-α in MDA-MB-231 cells; MDA-MB-231 cells, 2.5 μM, 24-96 hours, RT-PCR, especially evident at 48-96 h): significantly enhanced
expression of ER-α protein (ER-α in MDA-MB-231 cells; MDA-MB-231 cells, 2.5 μM, 24-96 hours, Western blot, especially evident at 48-96 h): significantly enhanced
composition of pRb2/p130-multimolecular complex recruited onto ER-α promoter [2]: did not influence the composition
